# Measured values from publication PMC4553411, “Identification of B6T173 (ZmPrx35) as the prevailing peroxidase in highly insect-resistant maize (Zea mays, p84C3) kernels by activity-directed purification” (Frontiers in Plant Science, 2015).
# Molecular target: T1, B6T173 (ZmPrx35) (Zea mays, UniProt B6T173)
# T1 construct: recombinant from p84C3 cDNA, amplified from start codon to stop codon, pET19b (His-tag), E. coli BL21 (DE3) Rosetta gami; class III peroxidase
# Experiment: in-gel guaiacol-H2O2 activity staining of IMAC fractions
# Assay type: biochemical
# Conditions: H2O2 co-substrate; 20 mM guaiacol, 50 mM phosphate pH 6.8
# T1 sequence (B6T173 1-339): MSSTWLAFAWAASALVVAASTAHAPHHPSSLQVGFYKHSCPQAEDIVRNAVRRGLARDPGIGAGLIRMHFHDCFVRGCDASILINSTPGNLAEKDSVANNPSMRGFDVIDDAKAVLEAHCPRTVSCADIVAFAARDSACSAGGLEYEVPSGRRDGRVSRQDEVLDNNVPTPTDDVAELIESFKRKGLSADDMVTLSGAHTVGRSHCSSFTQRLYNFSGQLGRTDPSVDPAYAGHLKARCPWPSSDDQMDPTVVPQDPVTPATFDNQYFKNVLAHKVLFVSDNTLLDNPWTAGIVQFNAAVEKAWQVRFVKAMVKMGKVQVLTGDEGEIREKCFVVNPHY
smiles,measurement,value
COc1ccccc1O [guaiacol],in-gel guaiacol-H2O2 activity staining of IMAC fractions,Guaiacol-H2O2 staining of the same POD fractions
